Patent US20240033370A1, “ANTI-PD-L1 IMMUNOCONJUGATES, AND USES THEREOF” (BOLT BIOTHERAPEUTICS, INC., priority 2020, published 2024)

Key:
human TLR7 = human TLR7 (Homo sapiens (Human), UniProt Q9NYK1); experiment: HEK293 NFKB reporter assay, human TLR7; assay type: cell-based; settings: HEK293 reporter cells expressing human TLR7; read-out: HEK293 hTLR7 EC50
Procedure: (§1) Each compound was synthesized, purified, and characterized by mass spectrometry and shown to have the mass indicated. Additional experimental procedures are found in the Examples. Activity against HEK293 NFKB reporter cells expressing human TLR7 or human TLR8 was measured according to Example 202.
(§2) HEK293 reporter cells expressing human TLR7 or human TLR8 were purchased from Invivogen and vendor protocols were followed for cellular propagation and experimentation. Briefly, cells were grown to 80-85% confluence at 5% CO2 in DMEM supplemented with 10% FBS, Zeocin, and Blasticidin. Cells were then seeded in 96-well flat plates at 4×10^4 cells/well with substrate containing HEK detection medium and immunostimulatory molecules. Activity was measured using a plate reader at 620-655 nm wavelength.

human TLR8 = human TLR8 (Homo sapiens (Human), UniProt Q9NR97); experiment: HEK293 NFKB reporter assay, human TLR8; assay type: cell-based; settings: HEK293 reporter cells expressing human TLR8; read-out: HEK293 hTLR8 EC50
Procedure: as §1, §2

human TLR8, sequence (Q9NR97 27-1041): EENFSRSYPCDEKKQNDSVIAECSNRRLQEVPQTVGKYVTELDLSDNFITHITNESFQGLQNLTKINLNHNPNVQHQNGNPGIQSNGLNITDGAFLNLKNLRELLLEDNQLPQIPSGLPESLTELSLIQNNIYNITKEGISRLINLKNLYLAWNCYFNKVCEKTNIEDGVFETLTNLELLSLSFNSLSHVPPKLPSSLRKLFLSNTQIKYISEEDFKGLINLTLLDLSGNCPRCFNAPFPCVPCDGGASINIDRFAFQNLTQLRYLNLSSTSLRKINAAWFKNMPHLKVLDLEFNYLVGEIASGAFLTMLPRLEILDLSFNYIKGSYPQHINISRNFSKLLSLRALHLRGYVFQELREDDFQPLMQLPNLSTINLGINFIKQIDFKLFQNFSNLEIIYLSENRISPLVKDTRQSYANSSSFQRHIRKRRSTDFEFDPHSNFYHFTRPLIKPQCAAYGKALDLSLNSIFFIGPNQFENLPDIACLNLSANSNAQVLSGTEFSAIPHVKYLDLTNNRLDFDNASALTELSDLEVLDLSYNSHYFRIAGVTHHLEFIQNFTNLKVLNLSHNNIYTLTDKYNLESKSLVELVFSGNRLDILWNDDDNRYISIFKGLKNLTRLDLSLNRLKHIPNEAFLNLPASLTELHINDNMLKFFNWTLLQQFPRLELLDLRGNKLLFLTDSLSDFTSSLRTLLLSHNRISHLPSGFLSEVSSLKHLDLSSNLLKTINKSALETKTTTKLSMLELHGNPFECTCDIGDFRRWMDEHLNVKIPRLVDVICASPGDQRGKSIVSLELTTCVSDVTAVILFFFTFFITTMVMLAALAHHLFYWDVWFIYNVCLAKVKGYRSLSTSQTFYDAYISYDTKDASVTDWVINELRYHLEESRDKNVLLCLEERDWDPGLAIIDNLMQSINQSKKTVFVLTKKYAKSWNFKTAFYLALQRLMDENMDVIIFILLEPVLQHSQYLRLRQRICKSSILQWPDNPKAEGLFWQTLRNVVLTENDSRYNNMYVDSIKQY
human TLR7, sequence (Q9NYK1 27-1049): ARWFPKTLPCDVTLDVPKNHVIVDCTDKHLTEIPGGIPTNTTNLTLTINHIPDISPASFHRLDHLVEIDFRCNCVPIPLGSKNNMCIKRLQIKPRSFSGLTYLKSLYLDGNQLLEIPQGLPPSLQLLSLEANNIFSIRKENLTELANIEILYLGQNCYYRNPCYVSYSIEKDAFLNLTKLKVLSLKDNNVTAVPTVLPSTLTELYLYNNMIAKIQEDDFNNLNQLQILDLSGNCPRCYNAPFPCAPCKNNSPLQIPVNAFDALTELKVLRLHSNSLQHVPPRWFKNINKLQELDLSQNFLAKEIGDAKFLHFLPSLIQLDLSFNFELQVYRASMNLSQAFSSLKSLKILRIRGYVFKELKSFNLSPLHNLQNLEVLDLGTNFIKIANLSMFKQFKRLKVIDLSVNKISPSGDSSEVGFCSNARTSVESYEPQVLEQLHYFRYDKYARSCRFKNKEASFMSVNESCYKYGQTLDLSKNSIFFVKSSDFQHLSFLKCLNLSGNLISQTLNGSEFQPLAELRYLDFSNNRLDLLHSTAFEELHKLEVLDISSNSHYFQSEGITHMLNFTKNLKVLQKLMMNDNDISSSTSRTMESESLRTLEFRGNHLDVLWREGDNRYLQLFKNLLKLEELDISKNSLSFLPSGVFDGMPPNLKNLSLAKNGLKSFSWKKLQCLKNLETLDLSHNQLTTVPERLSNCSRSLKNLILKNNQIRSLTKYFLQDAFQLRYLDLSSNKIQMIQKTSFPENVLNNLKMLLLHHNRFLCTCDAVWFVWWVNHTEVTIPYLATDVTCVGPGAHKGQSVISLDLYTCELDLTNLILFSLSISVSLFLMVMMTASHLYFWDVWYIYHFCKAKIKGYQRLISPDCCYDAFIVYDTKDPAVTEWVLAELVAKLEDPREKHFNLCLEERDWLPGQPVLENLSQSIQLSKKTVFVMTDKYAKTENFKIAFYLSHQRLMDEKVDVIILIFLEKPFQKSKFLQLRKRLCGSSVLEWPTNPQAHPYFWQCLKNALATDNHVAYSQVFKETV

| EC50 (human TLR7) [µM] | EC50 (human TLR8) [µM] | SMILES |
| --- | --- | --- |
| 9 |  | CCCN(OCC)C(=O)C1=Cc2ccc(-c3ncc(CN)cn3)cc2N=C(N)C1 [CycBz-10] |
| 9 | 9 | CCCN(OCCNC(=O)NC1COC1)C(=O)C1=Cc2ccc(-c3cnc(CN)nc3)cc2N=C(N)C1 [CycBz-17] |
| 9 |  | CCCN(CC1CNC(=O)O1)C(=O)C1=Cc2ccc(-c3cnc(CN)nc3)cc2N=C(N)C1 (centres unmarked) [CycBz-25] |
| 9 | 9 | CCCN(CCCO)C(=O)C1=Cc2ccc(-c3cnc(CN)nc3)cc2N=C(N)C1 [CycBz-26] |
| 9 | 9 | CCCN(CC1CNC(=O)CO1)C(=O)C1=Cc2ccc(-c3cnc(CN)nc3)cc2N=C(N)C1 (centres unmarked) [CycBz-42] |
| 9 |  | CCCN(OCCO)C(=O)C1=Cc2ccc(-c3cncc(S(=O)(=O)N4CC(CN)C4)c3)cc2N=C(N)C1 [CycBz-43] |
| 9 |  | CCCN(C(=O)C1=Cc2ccc(-c3cnc(CN)nc3)cc2N=C(N)C1)[C@H]1C[C@H](NC(=O)OC2CCC2)C1 [CycBz-44] |
| 9 |  | CCCN(OCC1COC(=O)N1)C(=O)C1=Cc2ccc(-c3cnc(CN)nc3)cc2N=C(N)C1 (centres unmarked) [CycBz-46] |
| 9 | 2.16 | CCCN(OCC)C(=O)C1=Cc2ccc(-c3cc(CN)ncn3)cc2N=C(N)C1 [CycBz-48] |
| 3.93 | 0.461 | CCCN(OCC(F)(F)F)C(=O)C1=Cc2ccc(-c3cccc(S(=O)(=O)N4CC(CN)C4)c3)cc2N=C(N)C1 [CycBz-49] |
| 9 | 4.19 | CCCN(OCC)C(=O)C1=Cc2ccc(-c3cccc(S(=O)(=O)N4CC(CNC(=O)C5CCNCC5)C4)c3)cc2N=C(N)C1 [CycBz-51] |
| 5.76 | 0.629 | CCCN(OCC)C(=O)C1=Cc2ccc(-c3ccc(C(=O)OC)cc3)cc2N=C(N)C1 [CycBz-52] |
| 3.09 | 0.86 | CCCN(OCC)C(=O)C1=Cc2ccc(-c3ccc(C(=O)N4CCC(N)C4)cc3)cc2N=C(N)C1 (centres unmarked) [CycBz-54] |
| 3.68 | 0.377 | CCCN(OCC)C(=O)C1=Cc2ccc(-c3ccc(C(=O)N4CCC(NC(=O)OC(C)(C)C)C4)cc3)cc2N=C(N)C1 (centres unmarked) [CycBz-55] |
| 7.15 | 0.374 | CCCN(CCCO)C(=O)C1=Cc2ccc(-c3cccc(S(=O)(=O)N4CC(CNC(=O)OC(C)(C)C)C4)c3)cc2N=C(N)C1 [CycBz-58] |
| 0.047 | 0.006 | CCCN(OCC)C(=O)C1=Cc2ccc(-c3ccc(C(=O)N4CCC[C@H]4C(=O)OC)cc3)cc2N=C(N)C1 [CycBz-59] |
| 0.738 | 0.163 | CCCN(OCCNC(=O)OC1CCC1)C(=O)C1=Cc2ccc(-c3cccc(S(=O)(=O)N4CC(CN)C4)c3)cc2N=C(N)C1 [CycBz-60] |
| 9 | 4.66 | CCCN(CCCCO)C(=O)C1=Cc2ccc(-c3cccc(S(=O)(=O)N4CC(CN)C4)c3)cc2N=C(N)C1 [CycBz-62] |
| 9 | 3.61 | CCCN(CCCO)C(=O)C1=Cc2ccc(-c3cccc(S(=O)(=O)N4CC(CN)C4)c3)cc2N=C(N)C1 [CycBz-63] |
| 3.43 | 0.097 | CCCN(OCC)C(=O)C1=Cc2ccc(-c3ccc(C(=O)N4CCC[C@@H]4C(=O)OC)cc3)cc2N=C(N)C1 [CycBz-64] |
| 2.31 | 1.56 | CCCN(CCCNC(=O)OC1CCC1)C(=O)C1=Cc2ccc(-c3cccc(S(=O)(=O)N4CC(CN)C4)c3)cc2N=C(N)C1 [CycBz-65] |
| 3.01 | 0.256 | CCCN(OCC)C(=O)C1=Cc2ccc(-c3ccc(C(=O)N4CCCC4)cc3)cc2N=C(N)C1 [CycBz-67] |
| 9 | 4.91 | CCCN(CCO)C(=O)C1=Cc2ccc(-c3cccc(S(=O)(=O)N4CC(CN)C4)c3)cc2N=C(N)C1 [CycBz-68] |
| 9 | 9 | CCCN(CCCNC(N)=O)C(=O)C1=Cc2ccc(-c3cccc(S(=O)(=O)N4CC(CN)C4)c3)cc2N=C(N)C1 [CycBz-70] |
| 1.92 | 0.012 | CCCN(OCC)C(=O)C1=Cc2ccc(-c3ccc(C(=O)N[C@@H](C)C(=O)OC(C)(C)C)cc3)cc2N=C(N)C1 [CycBz-74] |
| 4.75 | 0.086 | CCCN(OCC)C(=O)C1=Cc2ccc(-c3ccc(C(=O)N[C@H](C)C(=O)OC(C)(C)C)cc3)cc2N=C(N)C1 [CycBz-75] |
